In one series the test system is DU-145. Description: cells. It is filed as functional, cell-based. The settings on record: Homo sapiens, DU-145, 72 h.
Series [1] has as its target T1, Estrogen receptor (Homo sapiens, UniProt P03372).
T1 sequence (P03372 whole entry): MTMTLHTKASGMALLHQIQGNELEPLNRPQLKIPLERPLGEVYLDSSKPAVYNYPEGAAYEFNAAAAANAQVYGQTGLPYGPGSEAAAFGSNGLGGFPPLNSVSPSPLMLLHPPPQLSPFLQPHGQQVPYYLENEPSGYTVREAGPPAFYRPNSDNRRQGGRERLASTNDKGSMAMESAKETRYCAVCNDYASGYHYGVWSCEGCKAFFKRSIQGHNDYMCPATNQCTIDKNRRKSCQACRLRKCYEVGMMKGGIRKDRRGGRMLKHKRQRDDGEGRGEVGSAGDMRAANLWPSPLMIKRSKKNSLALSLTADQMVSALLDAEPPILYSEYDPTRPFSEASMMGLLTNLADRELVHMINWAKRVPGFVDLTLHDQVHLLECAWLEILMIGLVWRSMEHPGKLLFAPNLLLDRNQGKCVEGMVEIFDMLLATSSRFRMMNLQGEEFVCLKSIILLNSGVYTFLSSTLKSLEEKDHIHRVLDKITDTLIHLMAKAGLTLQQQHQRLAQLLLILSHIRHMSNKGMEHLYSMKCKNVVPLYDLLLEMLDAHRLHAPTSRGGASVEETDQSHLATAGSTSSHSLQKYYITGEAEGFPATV
Description: Binding affinity to human ER-alpha ligand binding domain after 2 hrs by competitive fluorometric binding assay.

The target of series [2] is T2, Estrogen receptor beta (Homo sapiens, UniProt Q92731). Description: Binding affinity to human ER-beta ligand binding domain after 2 hrs by competitive fluorometric binding assay.
T2 sequence (Q92731 whole entry, the tested form may be a part): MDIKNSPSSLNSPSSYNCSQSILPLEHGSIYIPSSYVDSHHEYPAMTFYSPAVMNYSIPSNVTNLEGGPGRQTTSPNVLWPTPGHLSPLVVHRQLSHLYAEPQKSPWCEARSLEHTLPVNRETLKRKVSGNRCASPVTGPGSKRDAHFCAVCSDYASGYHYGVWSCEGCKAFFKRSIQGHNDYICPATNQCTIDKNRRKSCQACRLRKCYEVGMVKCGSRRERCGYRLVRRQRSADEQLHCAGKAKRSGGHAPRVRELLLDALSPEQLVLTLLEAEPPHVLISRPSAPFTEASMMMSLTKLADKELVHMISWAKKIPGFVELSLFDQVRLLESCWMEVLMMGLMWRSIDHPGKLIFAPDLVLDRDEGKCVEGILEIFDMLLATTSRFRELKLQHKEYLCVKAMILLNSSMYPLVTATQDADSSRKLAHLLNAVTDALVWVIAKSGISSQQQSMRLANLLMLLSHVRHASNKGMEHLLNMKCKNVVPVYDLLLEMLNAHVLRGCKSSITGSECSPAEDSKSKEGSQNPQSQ
For series [3], the target named is T2, Estrogen receptor beta. As to the kind of experiment: Antagonist activity at ER-beta (unknown origin) transfected in HEK293T cells assessed as inhibition of transcriptional activity after 24 hrs by luciferase reporter gene assay. It is filed as cell-based, HEK-293T.
The nature of series [4]: Therapeutic index, ratio of IC50 for african green monkey Vero cells to IC50 for human MCF7 cells.
The target of series [5] is T2, Estrogen receptor beta. As to the kind of experiment: Antagonist activity at ER-beta (unknown origin) transfected in HEK293T cells assessed as inhibition of transcriptional activity after 24 hrs by luciferase reporter gene assay relative to 17-beta estradiol. The settings on record: HEK-293T. Format: cell-based.
In a further series the test system is MCF7. Description: cells. The settings on record: Homo sapiens, MCF7, 72 h. It is filed as functional, cell-based.
Series [6] concerns the target T3, Estrogen receptor (Homo sapiens) (UniProt P03372).
T3 sequence (whole entry): T1 sequence (P03372 whole entry)
Description: Antagonist activity at ER-alpha (unknown origin) transfected in HEK293T cells assessed as inhibition of transcriptional activity after 24 hrs by luciferase reporter gene assay relative to 17-beta estradiol. It is filed as cell-based. The conditions noted are these: HEK-293T.

Series [7] deals with T4, Protein deacetylase HDAC6 (Homo sapiens, UniProt Q9UBN7).
T4 sequence (Q9UBN7 whole entry): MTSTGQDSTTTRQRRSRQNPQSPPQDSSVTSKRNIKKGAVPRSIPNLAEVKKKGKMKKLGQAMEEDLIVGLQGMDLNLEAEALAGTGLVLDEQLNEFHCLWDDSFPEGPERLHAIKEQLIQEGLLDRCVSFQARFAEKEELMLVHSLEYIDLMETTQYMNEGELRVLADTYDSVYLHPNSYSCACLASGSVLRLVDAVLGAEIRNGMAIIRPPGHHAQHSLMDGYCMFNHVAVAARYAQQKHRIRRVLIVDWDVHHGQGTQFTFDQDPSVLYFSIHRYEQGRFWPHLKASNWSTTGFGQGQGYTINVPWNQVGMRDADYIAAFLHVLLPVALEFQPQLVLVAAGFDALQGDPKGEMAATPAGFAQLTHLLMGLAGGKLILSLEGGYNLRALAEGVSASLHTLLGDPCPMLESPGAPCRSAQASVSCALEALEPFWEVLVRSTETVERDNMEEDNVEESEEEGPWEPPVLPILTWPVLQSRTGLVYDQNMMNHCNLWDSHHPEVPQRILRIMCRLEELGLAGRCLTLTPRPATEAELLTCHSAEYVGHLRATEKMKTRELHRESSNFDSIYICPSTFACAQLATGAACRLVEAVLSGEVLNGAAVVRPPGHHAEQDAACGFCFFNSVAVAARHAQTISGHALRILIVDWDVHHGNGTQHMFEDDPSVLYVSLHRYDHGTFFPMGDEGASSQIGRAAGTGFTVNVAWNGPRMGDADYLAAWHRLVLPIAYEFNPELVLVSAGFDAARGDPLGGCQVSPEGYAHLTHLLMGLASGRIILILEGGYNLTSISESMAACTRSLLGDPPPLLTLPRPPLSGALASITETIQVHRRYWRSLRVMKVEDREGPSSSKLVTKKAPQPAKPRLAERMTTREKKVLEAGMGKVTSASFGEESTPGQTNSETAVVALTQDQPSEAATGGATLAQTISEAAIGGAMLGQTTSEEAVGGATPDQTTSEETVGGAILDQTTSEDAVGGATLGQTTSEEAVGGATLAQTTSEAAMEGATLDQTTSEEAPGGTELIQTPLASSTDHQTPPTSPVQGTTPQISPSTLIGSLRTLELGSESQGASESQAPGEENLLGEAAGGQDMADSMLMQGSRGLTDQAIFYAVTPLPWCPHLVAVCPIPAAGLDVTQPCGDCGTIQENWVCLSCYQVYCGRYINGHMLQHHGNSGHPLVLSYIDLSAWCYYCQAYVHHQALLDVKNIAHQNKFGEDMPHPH
Description: Inhibition of human recombinant HDAC6 after 15 mins by fluorogenic assay. The settings on record: read-out: IC50.

Series [8] has as its target T3, Estrogen receptor (Homo sapiens). Description: Agonist activity at ER-alpha (unknown origin) transfected in HEK293T cells assessed as stimulation of transcriptional activity after 24 hrs by luciferase reporter gene assay relative to 17-beta estradiol. Format: cell-based. The settings on record: HEK-293T.
A further series addresses Histone deacetylase 1 (Homo sapiens, UniProt Q13547). Description: Inhibition of human recombinant HDAC1 after 15 mins by fluorogenic assay. The settings on record: read-out: IC50.
For series [9], the target named is T2, Estrogen receptor beta. Description: Agonist activity at ER-beta (unknown origin) transfected in HEK293T cells assessed as stimulation of transcriptional activity after 24 hrs by luciferase reporter gene assay relative to 17-beta estradiol. Format: cell-based. The settings on record: HEK-293T.
Another series concerns Vero. Description: cells. It is filed as ADME, cell-based. The conditions noted are these: Chlorocebus sabaeus, 72 h.
The target of series [10] is T1, Estrogen receptor. As to the kind of experiment: Antagonist activity at ER-alpha (unknown origin) transfected in HEK293T cells assessed as inhibition of transcriptional activity after 24 hrs by luciferase reporter gene assay. Format: cell-based, HEK-293T.
Series [11] addresses T1, Estrogen receptor. Description: Agonist activity at ER-alpha (unknown origin) transfected in HEK293T cells assessed as stimulation of transcriptional activity after 24 hrs by luciferase reporter gene assay. It is filed as cell-based, HEK-293T.
The target in series [12] is T2, Estrogen receptor beta. As to the kind of experiment: Agonist activity at ER-beta (unknown origin) transfected in HEK293T cells assessed as stimulation of transcriptional activity after 24 hrs by luciferase reporter gene assay. It is filed as cell-based, HEK-293T.

Chain of Histone deacetylase 1 (Q13547 whole entry): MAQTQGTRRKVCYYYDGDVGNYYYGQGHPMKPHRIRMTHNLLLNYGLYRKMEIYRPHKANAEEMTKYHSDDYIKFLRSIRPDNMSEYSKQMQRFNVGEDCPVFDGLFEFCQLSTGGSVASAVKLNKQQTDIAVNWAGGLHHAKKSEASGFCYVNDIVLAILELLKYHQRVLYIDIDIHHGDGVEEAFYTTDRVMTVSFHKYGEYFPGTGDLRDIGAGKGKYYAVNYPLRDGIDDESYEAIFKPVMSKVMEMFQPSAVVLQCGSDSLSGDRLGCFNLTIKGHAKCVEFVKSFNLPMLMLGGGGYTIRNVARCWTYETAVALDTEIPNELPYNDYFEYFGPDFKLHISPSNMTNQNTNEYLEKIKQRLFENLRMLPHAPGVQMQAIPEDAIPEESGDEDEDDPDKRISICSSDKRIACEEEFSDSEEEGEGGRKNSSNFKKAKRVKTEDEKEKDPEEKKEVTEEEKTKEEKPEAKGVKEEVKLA

In the case of `COC(=O)CCCCCCC(=O)Nc1ccc(OS(=O)(=O)C2CC3OC2C(c2ccc(O)cc2)=C3c2ccc(O)cc2)cc1` (stereo not drawn), the IC50 is 20.4 µM with DU-145; 0.33 µM on Estrogen receptor beta [3]; 8.1 µM in the series on MCF7; 1.58 µM in series [7]; 0.534 µM at Histone deacetylase 1; over 100 µM with Vero. For the same compound, the IC50 on Estrogen receptor [10] is 10.8 µM. Moreover, the Ki at Estrogen receptor [1] was determined as 0.0599 µM; on Estrogen receptor beta [2], 0.756 µM. The selectivity ratio in series [4] was over 12.3. The Efficacy at Estrogen receptor beta [5] was 76%; in [6], 10%; in series [8] it was -35%; at Estrogen receptor beta [9], 4%.

As for `O=C(O)CCCCCCC(=O)Nc1ccc(OS(=O)(=O)C2CC3OC2C(c2ccc(O)cc2)=C3c2ccc(O)cc2)cc1` (stereo not drawn), the IC50 with DU-145 was 34.8 µM; on Estrogen receptor beta [3], 0.16 µM; in the series on MCF7 it was 19.1 µM; in series [7] it was 8.34 µM; at Histone deacetylase 1, 0.107 µM; in the series on Vero, over 100 µM. On Estrogen receptor [10], the half-maximal inhibitory concentration (IC50) is 0.05 µM. The Efficacy on Estrogen receptor beta [5] was 89%; in series [6], 25%; in series [8] it was -10%; at Estrogen receptor beta [9] it was -5%.

Regarding `O=C(CCCCCCC(=O)Nc1ccc(C2=C(c3ccc(O)cc3)C3CC(S(=O)(=O)Oc4ccc5ccccc5c4)C2O3)cc1)NO` (stereo not drawn), the IC50 was 12.4 µM in the series on DU-145; 7.7 µM at Estrogen receptor beta [3]; 32.2 µM with MCF7; 0.322 µM in series [7]; 0.349 µM at Histone deacetylase 1; over 100 µM in the series with Vero. Besides, on Estrogen receptor [10], the IC50 was found to be 0.16 µM. Moreover, the results for the inhibitory constant (Ki) at Estrogen receptor [1] and on Estrogen receptor beta [2] were 0.307 µM and 0.102 µM, respectively. In addition, the Efficacy at Estrogen receptor beta [5] was 19%; in [6] it was -26%; in [8], 13%; at Estrogen receptor beta [9], -17%.

As for `COc1cccc(OS(=O)(=O)C2CC3OC2C(c2ccc(NC(=O)CCCCCCC(=O)O)cc2)=C3c2ccc(O)cc2)c1` (racemic), the IC50 is 53.8 µM with DU-145, 17.9 µM in the series on MCF7 and over 100 µM in the series on Vero. The Ki on Estrogen receptor [1] was 4.43 µM; at Estrogen receptor beta [2], 0.0815 µM. The selectivity ratio in series [4] was over 5.59. The EC50 at Estrogen receptor [11] came out at 1.16 µM; at Estrogen receptor beta [12], 1.1 µM. Besides, the Efficacy at Estrogen receptor beta [5] came to 100%; in series [6], 87%; in [8], 67%; at Estrogen receptor beta [9], 100%.

Take `O=C(O)CCCCCCC(=O)Nc1ccc(C2=C(c3ccc(O)cc3)C3CC(S(=O)(=O)Oc4ccc(O)cc4)C2O3)cc1` (racemic): the IC50 in the series with DU-145 is over 100 µM; on Estrogen receptor beta [3], 11.7 µM; in the series with MCF7, over 100 µM; in the series on Vero, over 100 µM. For the same compound, the inhibition constant Ki at Estrogen receptor [1] is 0.133 µM; on Estrogen receptor beta [2] it was 0.039 µM. The EC50 was determined as 2.42 µM at Estrogen receptor [11] and 13.4 µM on Estrogen receptor beta [12]. In addition, the Efficacy on Estrogen receptor beta [5] came to 23%; in series [6], 99%; in [8], 79%; at Estrogen receptor beta [9], 69%.

For the compound `COc1ccccc1OS(=O)(=O)C1CC2OC1C(c1ccc(NC(=O)CCCCCCC(=O)O)cc1)=C2c1ccc(O)cc1` (racemic), the half-maximal inhibitory concentration (IC50) was over 100 µM with DU-145, 0.29 µM at Estrogen receptor beta [3], over 100 µM in the series on MCF7 and over 100 µM with Vero. For the same compound, the values for the inhibition constant Ki on Estrogen receptor [1] and at Estrogen receptor beta [2] were 0.159 µM and 0.0952 µM, respectively. Besides, the EC50 on Estrogen receptor [11] turned out to be 0.016 µM; on Estrogen receptor beta [12], 1.8 µM. Besides, the Efficacy was found to be 78% on Estrogen receptor beta [5], 104% in series [6], 84% in [8] and 65% at Estrogen receptor beta [9].

Regarding `O=C(O)CCCCCCC(=O)Nc1ccc(C2=C(c3ccc(O)cc3)C3CC(S(=O)(=O)Oc4ccc(F)cc4)C2O3)cc1` (racemic), the IC50 is over 100 µM with DU-145, 0.28 µM at Estrogen receptor beta [3], 24.8 µM in the series with MCF7 and over 100 µM in the series with Vero. Further, on Estrogen receptor [11], the EC50 was 18 µM. Also, the Efficacy on Estrogen receptor beta [5] is 85%; in [6], 99%; in [8], 38%; at Estrogen receptor beta [9], -13%.

`O=C(O)CCCCCCC(=O)Nc1ccc(C2=C(c3ccc(O)cc3)C3CC(S(=O)(=O)Oc4ccc(Cl)cc4)C2O3)cc1` (racemic): the IC50 is over 100 µM in the series with DU-145; 3.3 µM in the series with MCF7; 1.46 µM in series [7]; 0.241 µM at Histone deacetylase 1; over 100 µM with Vero. The Ki on Estrogen receptor [1] is 0.126 µM; on Estrogen receptor beta [2], 0.2 µM. Besides, in series [4], the selectivity ratio was over 30.3. Moreover, the figures for the EC50 at Estrogen receptor [11] and on Estrogen receptor beta [12] were 0.79 µM and 0.58 µM, respectively. Also, the Efficacy on Estrogen receptor beta [5] came to 188%; in series [6], 93%; in [8] it was 149%; at Estrogen receptor beta [9] it was 44%.

Take `O=C(O)CCCCCCC(=O)Nc1ccc(C2=C(c3ccc(O)cc3)C3CC(S(=O)(=O)Oc4ccc(Br)cc4)C2O3)cc1` (racemic): the IC50 with DU-145 is over 100 µM; on Estrogen receptor beta [3], 0.25 µM; with MCF7, over 100 µM; in the series on Vero, over 100 µM; on Estrogen receptor [10], 1.7 µM. Further, the Ki was determined as 0.126 µM at Estrogen receptor [1] and 0.0605 µM on Estrogen receptor beta [2]. Also, the Efficacy at Estrogen receptor beta [5] was 77%; in series [6], 75%; in series [8], -36%; on Estrogen receptor beta [9], -3%.

Values taken from ChEMBL document CHEMBL3588800, “Novel Bioactive Hybrid Compound Dual Targeting Estrogen Receptor and Histone Deacetylase for the Treatment of Breast Cancer” (J Med Chem, 2015).
